Legend:
[1] = Biodistribution in ICR mice after intravenous injection, gamma counter (Experimental Example 3); format: in vivo; details: ICR male mice, i.v., 1 μCi/100 μL per mouse
[2] = Stability in normal mouse serum at 37 °C, radio-TLC (Experimental Example 2); format: in vitro ADME

Q: Which “time to absorption and accumulation in liver and kidney” value [1] does the source give for [N-]=[N+]=NCCOCCOCCOCCNC(=O)c1ccc([125I])cc1 [실시예 1, 125I이 표지된 N-(2-(2-(2-(2-아지도에톡시)에톡시)에톡시)에틸)-4-아이오도벤즈아마이드] here?
A: ≤ 15 min

Q: And the tissue uptake at 1 h ([1]; liver and kidney, iv, 1 uCi/animal, within 1 h, read-out: concentration (liver and kidney))?
A: ≤ 20 %ID/g

Q: What about the tissue uptake at 2 h ([1]; liver and kidney, iv, 1 uCi/animal, within 2 h, read-out: concentration (liver and kidney)) of the same compound?
A: ≤ 10 %ID/g

Q: And the “accumulation in liver and kidney” value ([1]; within 15 min)?
A: 높은 농도로 집적

Q: And the “excretion from the body” value ([1]; within 2 h)?
A: ≥ 90%

Q: What about the “decrease of radiochemical purity in mouse serum” value ([2]; after 5 h) of the same compound?
A: 거의 감소하지 않고

Q: What about the remaining at 5 h ([2]; after 5 h, read-out: radiochemical purity in mouse serum) of the same compound?
A: ≥ 95%

Q: What about the remaining at 24 h ([2]; after 24 h, read-out: radiochemical purity in mouse serum) of the same compound?
A: ≥ 90%

From patent KR20170031305A, “방사성 요오드 표지 아자이드 추적체, 이의 제조방법 및 이를 유효성분으로 포함하는 방사성 요오드 표지 또는 의료 진단용 조성물” (한국원자력연구원, priority 2015, dated 2017)
